Data on five molecules can be found in PMC2801808 (Journal of medicinal chemistry, 2009).

Data set [1] deals with T1, purified calpain 1 (Homo sapiens, UniProt P07384).
T1 sequence (P07384 1-714): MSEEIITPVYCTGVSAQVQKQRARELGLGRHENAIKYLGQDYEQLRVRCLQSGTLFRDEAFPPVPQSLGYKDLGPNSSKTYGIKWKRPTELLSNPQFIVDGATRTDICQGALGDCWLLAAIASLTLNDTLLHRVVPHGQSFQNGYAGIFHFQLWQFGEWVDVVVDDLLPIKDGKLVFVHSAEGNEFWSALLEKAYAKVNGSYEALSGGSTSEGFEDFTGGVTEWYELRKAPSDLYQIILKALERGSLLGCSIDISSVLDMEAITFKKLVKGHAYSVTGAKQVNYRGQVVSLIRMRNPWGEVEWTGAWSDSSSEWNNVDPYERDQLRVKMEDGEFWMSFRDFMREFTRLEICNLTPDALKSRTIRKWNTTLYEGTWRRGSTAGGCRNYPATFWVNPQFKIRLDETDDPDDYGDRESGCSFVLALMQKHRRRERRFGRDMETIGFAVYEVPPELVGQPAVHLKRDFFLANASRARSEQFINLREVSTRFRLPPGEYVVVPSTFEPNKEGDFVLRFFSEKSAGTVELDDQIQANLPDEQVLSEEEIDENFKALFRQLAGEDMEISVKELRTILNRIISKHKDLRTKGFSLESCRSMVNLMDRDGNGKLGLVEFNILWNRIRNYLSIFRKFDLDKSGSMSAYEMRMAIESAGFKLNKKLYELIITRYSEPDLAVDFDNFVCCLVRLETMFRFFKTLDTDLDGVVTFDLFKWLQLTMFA
T1 sequence (P04632 1-268 partner): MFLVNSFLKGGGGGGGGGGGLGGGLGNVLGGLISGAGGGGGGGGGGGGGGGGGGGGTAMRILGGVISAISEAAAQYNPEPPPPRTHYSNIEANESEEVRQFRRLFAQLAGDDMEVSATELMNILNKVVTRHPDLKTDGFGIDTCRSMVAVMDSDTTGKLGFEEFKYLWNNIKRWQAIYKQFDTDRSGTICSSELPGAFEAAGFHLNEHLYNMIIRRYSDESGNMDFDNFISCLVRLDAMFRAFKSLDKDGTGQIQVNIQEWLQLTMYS
The data set can be described thus: Calpain 1 activity, sLLVY-AMC hydrolysis with purified calpain 1. The data set is classed as biochemical.

Data set [2] relates to NDUFV2 cleavage. The data set is described as follows: Ca2+-induced cleavage of complex I subunit NDUFV2 in isolated mitochondria. More on the design: species or system rabbit. The conditions noted are these: 10 μM pretreatment, then Ca2+ 1 μM for 5 min.
The test system of data set [3] is state 3 respiration of renal cortical mitochondria. The data set is described as follows: Ca2+-induced attenuation of state 3 respiration in isolated mitochondria. The following applies: 10 μM pretreatment, then Ca2+ 1 μM for 5 min. More on the design: species or system rabbit.
Data set [4] has as its target T2, calpain 2 (Sus scrofa, UniProt A6YNL5).
T2 sequence (A6YNL5 1-700): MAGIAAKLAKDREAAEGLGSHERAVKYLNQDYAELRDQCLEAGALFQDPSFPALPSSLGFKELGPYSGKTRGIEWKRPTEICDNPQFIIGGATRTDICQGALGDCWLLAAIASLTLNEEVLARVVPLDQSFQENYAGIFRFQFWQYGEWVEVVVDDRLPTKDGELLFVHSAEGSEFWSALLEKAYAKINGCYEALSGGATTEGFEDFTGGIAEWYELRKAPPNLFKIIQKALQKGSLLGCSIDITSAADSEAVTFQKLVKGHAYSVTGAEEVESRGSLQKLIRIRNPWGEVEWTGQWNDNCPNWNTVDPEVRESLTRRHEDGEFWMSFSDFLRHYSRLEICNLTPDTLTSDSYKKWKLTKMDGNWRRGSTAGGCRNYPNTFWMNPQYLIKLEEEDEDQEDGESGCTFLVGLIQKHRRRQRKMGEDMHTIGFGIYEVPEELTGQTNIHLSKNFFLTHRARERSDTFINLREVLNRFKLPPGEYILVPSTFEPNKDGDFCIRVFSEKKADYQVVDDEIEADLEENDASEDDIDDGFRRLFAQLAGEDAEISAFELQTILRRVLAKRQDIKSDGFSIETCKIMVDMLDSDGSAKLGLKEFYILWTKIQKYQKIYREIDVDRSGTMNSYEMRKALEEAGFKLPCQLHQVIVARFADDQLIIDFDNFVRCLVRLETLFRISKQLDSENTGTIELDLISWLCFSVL
T2 sequence (P04574 1-266 partner): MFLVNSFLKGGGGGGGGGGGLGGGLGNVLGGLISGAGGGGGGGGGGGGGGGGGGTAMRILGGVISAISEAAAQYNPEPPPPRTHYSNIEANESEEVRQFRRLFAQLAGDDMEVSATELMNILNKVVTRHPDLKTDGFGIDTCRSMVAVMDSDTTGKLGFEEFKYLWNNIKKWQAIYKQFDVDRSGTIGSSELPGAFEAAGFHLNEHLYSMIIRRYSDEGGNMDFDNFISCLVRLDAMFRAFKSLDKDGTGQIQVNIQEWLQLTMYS
The data set can be described thus: Calpain 2 inhibition. The data set is classed as biochemical, porcine.

For data set [5], the system named is calpain. The conditions noted are these: cited from earlier work.
The conditions of data set [6]: no reference given; cited from earlier work.

The IC50 is the midpoint of a concentration-inhibition curve. High values mean weaker potency in that assay, low ones greater potency in that assay. Regarding `CCCC[C@@H](C=O)NC(=O)[C@H](CC(C)C)NC(=O)OCc1ccccc1` [Calpeptin, Z-Leu-Nle-CHO], the half-inhibitory concentration (IC50) was around 40 nM in data set [1] and around 60 nM in data set [4]. Moreover, the “Ca2+-induced cleavage of complex I subunit NDUFV2” value in data set [2] is listed as “blocked”. For the same molecule, the “Ca2+-induced attenuation of state 3 respiration” value in data set [3] is on record as “blocked”.
On to `O=C(O)/C(S)=C/c1ccc(I)cc1` [PD150606], for which the “selectivity for calpain over cathepsin B” value in data set [5] was 600 fold.
For `O=C(O)/C(S)=C/c1c[nH]c2ccc(F)cc12` [PD151746], in data set [5], the “selectivity for calpain over cathepsin B” value is given as 600 fold.
Turning to `CCS` [ethanethiol], the “thiol pKa” value in data set [6] is given as 10.61.
Turning to `COc1ccc(S)cc1` [methoxythiophenol], the “thiol pKa” value in data set [6] is reported as 6.8.
